In article PMC9015904 (ChemMedChem, 2022):

Experiments:
[1] = biological target: MOR; settings: cited from earlier work
[2] = tested on: male C57BL/6NHsd mice; settings: mouse, in vivo
[3] = tested on: male C57BL/6NHsd mice; settings: mouse, in vivo; remark: listed apart in the source
[4] = biological target: KOR; settings: cited from earlier work
[5] = biological target: DOR; settings: cited from earlier work
[6] = tested on: MOR; assay: Literature binding affinity at MOR; settings: from literature Ki values
[7] = tested on: KOR; assay: Literature binding affinity at KOR; settings: from literature Ki values
[8] = tested on: male C57BL/6NHsd mice; settings: mouse, in vivo; remark: listed apart in the source

For COC(=O)[C@@H]1C[C@H](OC(=O)c2ccccc2)C(=O)[C@H]2[C@@]1(C)CC[C@H]1C(=O)O[C@H](c3ccoc3)C[C@]21C [Herkinorin], the Kd ([1]; read-out: KD [nM] (MOR)) is listed as 12 ± 1 nM, the Ki ([1]; read-out: Ki (MOR)) is listed as 0.012 µM and the “time spent in the open arms compared to vehicle” value [2] is listed as “notable increase in open arm time, but this was not statistically significant”. The “latency to tail withdrawal compared to vehicle” value [3] was “Neither salvinorin A, herkinorin, nor compounds 2 or 10 demonstrated significant antinociception”, the Kd ([4]; read-out: KD [nM] (KOR)) was 90 ± 2 nM and the Ki ([4]; read-out: Ki (KOR)) was 0.09 µM. For the same molecule, the Kd ([5]; read-out: KD [nM] (DOR), Literature values) was 1170 ± 60 nM, the Ki ([5]; read-out: Ki (DOR)) was 1.17 µM and the “fold higher affinity for MOR compared to salvinorin A” value [6] was at least 83 fold. The “fold lower affinity for KOR compared to salvinorin A” value [7] was 47 fold and the “latency to hind paw lick or flutter compared to vehicle” value [8] was “Neither salivinorin A, herkinorin, nor compound 10 were observed to significantly influence the latency to paw response”.
